Test results reported in patent US4769368A, “2,3,4,8,9,9A-Hexahydro-4-aryl-1H-indeno(1,7-CD)azepines” (SmithKline Beckman Corporation, priority 1986, dated 1988).
Where a name gives a salt, the structure may show the parent alone.

Tests used:
[1] = molecular target: T1, D1-dopamine sites (rat caudate) (Rattus norvegicus, UniProt P18901); test: Displacement of [3H] fenoldopam, rat caudate (D1) binding; conditions: in words
T1 construct: rat caudate; from tissue; host or cells: rat caudate
Source text: (§1) As an example of the D1 -dopamine specificity of the compounds of this invention, a species of formula I, 6,7-dihydroxy-2,3,4,8,9-9a-hexahydro-4-phenyl-1H-indeno[1,7-cd]azepine hydrobromide, was submitted to standard binding tests for D1 and D2 -dopamine sites, see K. Flaim, loc. cit. for testing protocols.
[^3 H] fenoldopam rat caudate

[2] = tested on: D2-dopamine sites (bovine pituitary); test: Displacement of [3H] spiroperidol, bovine pituitary (D2) binding; conditions: at 10^-5 M, 10 µM
Source text: as §1
[^3 H] spiroperidol bovine

[3] = tested on: dopamine D1 and D2 receptor; conditions: in words; U.S. Pat. No. 4,197,297; cited from earlier work
[4] = in words; peripheral dopaminergic agent; cited from earlier work

T1 sequence (P18901 whole entry): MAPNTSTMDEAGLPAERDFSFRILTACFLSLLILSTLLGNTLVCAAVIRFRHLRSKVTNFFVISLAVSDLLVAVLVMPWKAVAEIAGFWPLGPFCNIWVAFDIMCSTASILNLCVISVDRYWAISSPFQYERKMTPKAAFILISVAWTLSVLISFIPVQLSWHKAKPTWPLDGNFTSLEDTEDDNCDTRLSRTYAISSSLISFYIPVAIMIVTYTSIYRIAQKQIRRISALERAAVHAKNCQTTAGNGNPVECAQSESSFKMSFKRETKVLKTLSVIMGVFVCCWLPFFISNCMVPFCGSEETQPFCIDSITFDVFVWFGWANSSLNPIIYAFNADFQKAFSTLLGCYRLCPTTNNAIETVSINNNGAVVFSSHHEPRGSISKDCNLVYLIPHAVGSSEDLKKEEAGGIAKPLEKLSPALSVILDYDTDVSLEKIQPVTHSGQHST

Row | Compound | potency and selectivity for D1 dopamine sites [1] | Displacement of [3H] spiroperidol bovine pituitary (D2) [2] | agonist activity [3] | described activity [4]
1 | Oc1cc2c3c(c1O)CC[C@H]3CNC[C@H]2c1ccccc1 (stereo in doubt) [cis, cis-6,7-dihydroxy-2,3,4,8,9,9a-hexahydro-4-phenyl-1H-indeno[1-7-cd]azepinehydrobromide] | very potent and selective | 14% | – | –
2 | Br.Oc1cc2c3c(c1O)CC[C@@H]3CNC[C@@H]2c1ccccc1 (stereo in doubt) [trans, trans-6,7-dihydroxy-2,3,4,8,9,9a-hexahydro-4-phenyl-1H-indeno[1,7-cd]azepine hydrobromide] | – | 0% | – | –
3 | Oc1ccc(C2CNCCc3c2cc(O)c(O)c3Cl)cc1 (centres unmarked) [fenoldopam] | – | – | D1 and some D2 agonist activity | renal dilating, anti-hypertensive, anti-shock and anti-congestive heart failure activity
